Results published in ChEMBL document CHEMBL1201862, “PubChem BioAssay data set” (2004).
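Compound exposure: 48 hours, 5 concentrations, 96-well plates. GI50 = concentration required for 50% inhibition of growth.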 Calls of active or inactive are those of the source. No stated cut-off is given here; in the data, active = GI50 up to about 1.1 µM and inactive = higher.

Legend:
Experiment in all cases: NCI anticancer screen, dose series, 48 h
786-0 = tested on: 786-0
A498 = tested on: A498
A549 = tested on: A549
ACHN = tested on: ACHN
CAKI-1 = tested on: CAKI-1
CCRF-CEM = tested on: CCRF-CEM
COLO 205 = tested on: COLO 205
DU-145 = tested on: DU-145
EKVX = tested on: EKVX
HCC 2998 = tested on: HCC 2998
HCT-116 = tested on: HCT-116
HCT-15 = tested on: HCT-15
HL-60 = tested on: HL-60
HOP-62 = tested on: HOP-62
HT-29 = tested on: HT-29
Hs-578T = tested on: Hs-578T
IGROV-1 = tested on: IGROV-1
K562 = tested on: K562
KM12 = tested on: KM12
LOX IMVI = tested on: LOX IMVI
M14 = tested on: M14
MCF7 = tested on: MCF7
MDA-MB-231 = tested on: MDA-MB-231
MDA-MB-435 = tested on: MDA-MB-435
MDA-N = tested on: MDA-N
MOLT-4 = tested on: MOLT-4
Malme-3M = tested on: Malme-3M
NCI-H226 = tested on: NCI-H226
NCI-H23 = tested on: NCI-H23
NCI-H460 = tested on: NCI-H460
NCI-H522 = tested on: NCI-H522
NCI/ADR-RES = tested on: NCI/ADR-RES
OVCAR-3 = tested on: OVCAR-3
OVCAR-4 = tested on: OVCAR-4
OVCAR-5 = tested on: OVCAR-5
OVCAR-8 = tested on: OVCAR-8
PC-3 = tested on: PC-3
RPMI-8226 = tested on: RPMI-8226
RXF 393 = tested on: RXF 393
SF-268 = tested on: SF-268
SF-295 = tested on: SF-295
SF-539 = tested on: SF-539
SK-MEL-28 = tested on: SK-MEL-28
SK-MEL-2 = tested on: SK-MEL-2
SK-MEL-5 = tested on: SK-MEL-5
SK-OV-3 = tested on: SK-OV-3
SN12C = tested on: SN12C
SNB-19 = tested on: SNB-19
SNB-75 = tested on: SNB-75
SR = tested on: SR
SW-620 = tested on: SW-620
T47D = tested on: T47D
TK-10 = tested on: TK-10
U-251 = tested on: U-251
UACC-257 = tested on: UACC-257
UACC-62 = tested on: UACC-62
UO-31 = tested on: UO-31

Measured: GI50

CC1=NOC2(C1)C(=O)Nc1ccccc12 (stereo not drawn)
inactive: 786-0 > 100 µM | A498 34.3 µM | A549 > 100 µM | ACHN > 100 µM | CAKI-1 30.3 µM | CCRF-CEM > 100 µM | COLO 205 > 100 µM | DU-145 > 100 µM | EKVX > 100 µM | HCC 2998 > 100 µM | HCT-116 > 100 µM | HL-60 > 100 µM | HOP-62 > 100 µM | HT-29 > 100 µM | Hs-578T > 100 µM | IGROV-1 > 100 µM | K562 > 100 µM | KM12 > 100 µM | LOX IMVI > 100 µM | M14 > 100 µM | MCF7 9.79 µM | MDA-MB-231 > 100 µM | MDA-MB-435 > 100 µM | MDA-N > 100 µM | MOLT-4 > 100 µM | Malme-3M > 100 µM | NCI-H226 50.8 µM | NCI-H23 > 100 µM | NCI-H460 > 100 µM | NCI-H522 > 100 µM | NCI/ADR-RES 44.5 µM | OVCAR-3 > 100 µM | OVCAR-4 > 100 µM | OVCAR-5 > 100 µM | OVCAR-8 > 100 µM | PC-3 > 100 µM | RPMI-8226 > 100 µM | RXF 393 > 100 µM | SF-268 > 100 µM | SF-295 > 100 µM | SF-539 > 100 µM | SK-MEL-28 > 100 µM | SK-MEL-2 > 100 µM | SK-MEL-5 60.5 µM | SK-OV-3 > 100 µM | SN12C > 100 µM | SNB-19 40.6 µM | SNB-75 66.2 µM | SR > 100 µM | SW-620 24.4 µM | T47D > 100 µM | TK-10 > 100 µM | U-251 > 100 µM | UACC-257 > 100 µM | UACC-62 > 100 µM
active: UO-31 0.0121 µM
> 100 µM: HCT-15

O=c1ccn(C2OC(CO)C(O)C2F)c(=O)n1Cc1ccccc1 (stereo not drawn)
inactive: 786-0 > 100 µM | A549 > 100 µM | ACHN > 100 µM | CAKI-1 > 100 µM | CCRF-CEM > 100 µM | COLO 205 > 100 µM | DU-145 > 100 µM | EKVX > 100 µM | HCT-116 > 100 µM | HL-60 > 100 µM | HOP-62 > 100 µM | HT-29 > 100 µM | Hs-578T > 100 µM | IGROV-1 > 100 µM | K562 > 100 µM | KM12 > 100 µM | LOX IMVI > 100 µM | MCF7 > 100 µM | MDA-MB-231 > 100 µM | MDA-MB-435 > 100 µM | MDA-N > 100 µM | MOLT-4 > 100 µM | Malme-3M > 100 µM | NCI-H226 > 100 µM | NCI-H23 > 100 µM | NCI-H460 > 10 µM | NCI-H522 > 100 µM | NCI/ADR-RES > 100 µM | OVCAR-3 > 100 µM | OVCAR-5 > 100 µM | OVCAR-8 > 100 µM | PC-3 > 100 µM | RPMI-8226 > 100 µM | RXF 393 > 100 µM | SF-268 > 100 µM | SF-295 > 100 µM | SF-539 > 100 µM | SK-MEL-28 > 100 µM | SK-MEL-5 > 100 µM | SN12C > 100 µM | SNB-19 > 100 µM | SNB-75 > 100 µM | SR > 100 µM | SW-620 > 100 µM | T47D > 100 µM | TK-10 > 100 µM | U-251 > 100 µM | UACC-257 > 100 µM | UACC-62 > 100 µM | UO-31 > 100 µM
> 100 µM: HCT-15
